Here are results for 27 compounds from patent US9938281B2 (Merck Sharp & Dohme Corp., priority 2012, dated 2018).

Molecules are shown by their SMILES. Some results are limits rather than exact numbers.

For test [1], the target named is T1, PI3K-delta (Homo sapiens, UniProt O00329).
T1 construct: purchased Upstate; Millipore 14-604
Nature of the test: HTRF PI3K biochemical assay, delta isoform. The settings on record: form screened (neutral or TFA salt) given, read-out: PI3Kdelta IC50. On the technique in general: Time-resolved FRET reads energy transfer from a long-lived donor to a nearby acceptor.

Test [2] has as its target T2, PI3K-alpha (Homo sapiens, UniProt P42336).
T2 construct: purchased Upstate; Millipore 14-602
The test can be described thus: HTRF PI3K biochemical assay, alpha isoform. As to conditions: ratio PI3K-alpha IC50 value / PI3K-delta IC50 value.

T1 sequence (O00329 whole entry): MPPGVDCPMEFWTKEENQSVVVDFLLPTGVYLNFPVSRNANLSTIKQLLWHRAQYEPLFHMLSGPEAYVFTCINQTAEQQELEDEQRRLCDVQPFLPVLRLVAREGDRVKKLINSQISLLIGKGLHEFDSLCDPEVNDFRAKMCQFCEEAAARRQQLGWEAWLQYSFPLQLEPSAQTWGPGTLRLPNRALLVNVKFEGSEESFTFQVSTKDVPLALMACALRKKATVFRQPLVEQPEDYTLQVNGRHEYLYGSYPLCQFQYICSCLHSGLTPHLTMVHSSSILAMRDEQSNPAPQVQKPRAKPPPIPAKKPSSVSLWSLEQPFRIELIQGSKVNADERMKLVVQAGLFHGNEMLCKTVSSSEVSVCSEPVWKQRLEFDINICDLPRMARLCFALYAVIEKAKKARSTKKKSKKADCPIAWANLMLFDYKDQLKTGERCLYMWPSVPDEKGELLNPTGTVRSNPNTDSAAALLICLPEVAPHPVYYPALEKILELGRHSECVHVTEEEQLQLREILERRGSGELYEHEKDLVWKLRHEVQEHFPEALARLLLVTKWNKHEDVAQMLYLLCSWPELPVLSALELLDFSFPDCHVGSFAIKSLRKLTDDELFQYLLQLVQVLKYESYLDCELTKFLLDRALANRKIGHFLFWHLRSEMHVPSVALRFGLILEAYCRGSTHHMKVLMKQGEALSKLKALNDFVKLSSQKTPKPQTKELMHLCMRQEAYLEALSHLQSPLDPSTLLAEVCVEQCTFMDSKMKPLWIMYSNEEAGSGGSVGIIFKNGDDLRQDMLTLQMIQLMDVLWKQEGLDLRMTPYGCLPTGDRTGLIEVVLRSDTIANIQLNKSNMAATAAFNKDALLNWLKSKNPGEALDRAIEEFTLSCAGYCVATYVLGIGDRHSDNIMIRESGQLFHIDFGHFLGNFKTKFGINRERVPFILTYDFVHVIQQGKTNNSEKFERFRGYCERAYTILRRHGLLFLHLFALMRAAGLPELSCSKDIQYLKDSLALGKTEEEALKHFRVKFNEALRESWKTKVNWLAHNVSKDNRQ
T1 sequence (P27986 whole entry partner): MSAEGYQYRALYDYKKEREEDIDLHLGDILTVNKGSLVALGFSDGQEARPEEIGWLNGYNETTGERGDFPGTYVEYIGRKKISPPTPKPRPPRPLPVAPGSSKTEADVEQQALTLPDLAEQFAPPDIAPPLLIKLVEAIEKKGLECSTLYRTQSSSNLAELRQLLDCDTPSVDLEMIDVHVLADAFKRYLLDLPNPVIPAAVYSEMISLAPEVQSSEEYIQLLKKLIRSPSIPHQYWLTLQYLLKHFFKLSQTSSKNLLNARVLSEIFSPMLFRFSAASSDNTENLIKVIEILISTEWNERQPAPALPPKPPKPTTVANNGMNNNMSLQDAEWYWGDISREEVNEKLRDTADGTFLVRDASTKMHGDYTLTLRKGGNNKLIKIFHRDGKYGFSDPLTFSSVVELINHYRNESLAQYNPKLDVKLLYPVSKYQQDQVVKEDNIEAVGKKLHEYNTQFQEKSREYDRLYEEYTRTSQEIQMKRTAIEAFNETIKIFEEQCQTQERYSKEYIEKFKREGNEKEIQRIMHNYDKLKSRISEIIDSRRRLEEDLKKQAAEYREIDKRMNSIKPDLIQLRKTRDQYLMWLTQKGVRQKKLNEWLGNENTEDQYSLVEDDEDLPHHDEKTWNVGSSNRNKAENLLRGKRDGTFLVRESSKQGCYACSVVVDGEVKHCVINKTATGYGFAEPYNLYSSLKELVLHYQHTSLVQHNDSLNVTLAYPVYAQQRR
T2 sequence (P42336 whole entry): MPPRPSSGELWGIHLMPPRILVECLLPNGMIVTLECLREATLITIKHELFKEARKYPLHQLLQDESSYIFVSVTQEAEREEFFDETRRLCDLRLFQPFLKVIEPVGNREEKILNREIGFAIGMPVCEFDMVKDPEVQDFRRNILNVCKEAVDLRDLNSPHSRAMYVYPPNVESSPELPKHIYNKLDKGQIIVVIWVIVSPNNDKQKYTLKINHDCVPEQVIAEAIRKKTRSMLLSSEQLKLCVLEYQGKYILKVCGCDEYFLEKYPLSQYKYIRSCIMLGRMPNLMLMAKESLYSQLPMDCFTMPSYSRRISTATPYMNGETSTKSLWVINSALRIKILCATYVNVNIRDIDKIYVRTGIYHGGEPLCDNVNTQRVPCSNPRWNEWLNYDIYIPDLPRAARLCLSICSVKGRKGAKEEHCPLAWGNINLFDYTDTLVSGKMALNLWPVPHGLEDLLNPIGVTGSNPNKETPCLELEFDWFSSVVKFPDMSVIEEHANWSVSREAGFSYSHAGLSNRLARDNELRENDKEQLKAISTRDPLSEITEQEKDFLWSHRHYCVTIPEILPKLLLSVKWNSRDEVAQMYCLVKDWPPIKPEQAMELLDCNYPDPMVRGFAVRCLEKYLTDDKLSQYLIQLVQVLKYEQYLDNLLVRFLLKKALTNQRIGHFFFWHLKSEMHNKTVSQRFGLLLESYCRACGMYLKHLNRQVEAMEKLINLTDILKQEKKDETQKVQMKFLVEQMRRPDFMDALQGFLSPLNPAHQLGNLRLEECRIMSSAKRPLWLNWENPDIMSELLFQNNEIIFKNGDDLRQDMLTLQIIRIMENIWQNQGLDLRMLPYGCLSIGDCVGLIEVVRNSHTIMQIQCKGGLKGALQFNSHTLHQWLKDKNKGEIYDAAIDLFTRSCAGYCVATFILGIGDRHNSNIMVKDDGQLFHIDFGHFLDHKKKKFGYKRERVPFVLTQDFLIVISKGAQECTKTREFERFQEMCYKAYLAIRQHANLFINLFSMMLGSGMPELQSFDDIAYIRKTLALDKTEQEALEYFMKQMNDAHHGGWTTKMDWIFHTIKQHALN
T2 sequence (P27986 whole entry partner): as the sequence (P27986 whole entry partner) above

In the case of `Cn1c(-c2cnc(C(C)(C)C)s2)nc2c(N[C@H]3CCN(C(=O)OC(C)(C)C)C3)ncnc21` [Compound 1-9, (S)-tert-butyl 3-((8-(2-(tert-butyl)thiazol-5-yl)-9-methyl-9H-purin-6-yl)amino)pyrrolidine-1-carboxylate], the IC50 in test [1] was less than 1 nM. Besides, the “Selectivity versus PI3Kalpha” value in test [2] is greater than 10.

Turning to `CCn1ncc(-c2nc3c(N[C@H]4CCN(C(=O)C5CCOC(C)(C)C5)C4)ncnc3n2C)c1C` (stereo partly drawn) [Compound 2-6, N-{(3S)-1-[(2,2-dimethyltetrahydro-2H-pyran-4-yl)carbonyl]pyrrolidin-3-yl}-8-(1-ethyl-5-methyl-1H-pyrazol-4-yl)-9-methyl-9H-purin-6-amine], the IC50 in test [1] turned out to be 1.6 nM. For the same compound, the “Selectivity versus PI3Kalpha” value in test [2] is greater than 10.

Turning to `CCC(=O)N1CC[C@H](N(C)c2ncnc3c2nc(-c2cnc(OC)c(C)c2)n3CC)C1` [Compound 2-8, (S)-1-(3-((9-ethyl-8-(6-methoxy-5-methylpyridin-3-yl)-9H-purin-6-yl)(methyl)amino)pyrrolidin-1-yl)propan-1-one], the IC50 in test [1] was 2.2 nM. For the same compound, the “Selectivity versus PI3Kalpha” value in test [2] is on record as greater than 10.

Regarding `CCn1c(-c2cnc(C)nc2)nc2c(N[C@H]3CCN(C(=O)C4CCCO4)C3)ncnc21` (single isomer, unassigned) [Compound 2-32, 9-ethyl-8-(2-methylpyrimidin-5-yl)-N-[(3S)-1-((S or R)-tetrahydrofuran-2-ylcarbonyl)pyrrolidin-3-yl]-9H-purin-6-amine], in test [1], the IC50 worked out at 3.1 nM. The “Selectivity versus PI3Kalpha” value in test [2] is given as greater than 10.

Consider `CCn1c(-c2cnc(C)nc2)nc2c(N[C@H]3CCN(C(=O)c4nnsc4C)C3)ncnc21` [Compound 2-71, 9-ethyl-8-(2-methylpyrimidin-5-yl)-N-{(3S)-1-[(5-methyl-1,2,3-thiadiazol-4-yl)carbonyl]pyrrolidin-3-yl}-9H-purin-6-amine], for which the IC50 in test [1] is 4.2 nM. Moreover, the “Selectivity versus PI3Kalpha” value in test [2] was greater than 10.

`CCn1c(-c2cnc(C)nc2)nc2c(N[C@H]3C[C@@H](C(=O)OC)N(C(=O)C4CC4)C3)ncnc21` [Compound 2-54, methyl (4S)-1-(cyclopropylcarbonyl)-4-{[9-ethyl-8-(2-methylpyrimidin-5-yl)-9H-purin-6-yl]amino}-L-prolinate]: the IC50 in test [1] worked out at 63 nM. For the same compound, in test [2], the “Selectivity versus PI3Kalpha” value is recorded as greater than 10.

`CCC(=O)N1CC[C@H](Nc2ncnc3c2nc(-c2ccc(C)nc2)n3C)C1` [Compound 3-5, (S)-1-(3-((9-methyl-8-(6-methylpyridin-3-yl)-9H-purin-6-yl)amino)pyrrolidin-1-yl)propan-1-one]: the IC50 in test [1] is 4.5 nM. Further, the “Selectivity versus PI3Kalpha” value in test [2] is recorded as greater than 10.

Consider `CCC(=O)N1CC[C@H](Nc2ncnc3c2nc(-c2cc(O)cc(F)c2)n3C)C1` [Compound 3-9, 3-fluoro-5-(9-methyl-6-{[(3S)-1-propanoylpyrrolidin-3-yl]amino}-9H-purin-8-yl)phenol], for which the IC50 in test [1] is 1.3 nM. For the same compound, in test [2], the “Selectivity versus PI3Kalpha” value is listed as greater than 10.

For the compound `CCn1c(-c2cnc(C)nc2)nc2c(N[C@H]3CCN(C(=O)C4(COC)CCC4)C3)ncnc21` [Compound 2-57, 9-ethyl-N-[(3S)-1-{[1-(methoxymethyl)cyclobutyl]carbonyl}pyrrolidin-3-yl]-8-(2-methylpyrimidin-5-yl)-9H-purin-6-amine], the IC50 in test [1] is 7.1 nM. The “Selectivity versus PI3Kalpha” value in test [2] is recorded as greater than 10.

Regarding `CCC(=O)N1CC[C@H](Nc2ncnc3c2nc(-c2cnn(CC)c2C)n3CC2CC2)C1` [Compound 9-3, 9-(cyclopropylmethyl)-8-(1-ethyl-5-methyl-1H-pyrazol-4-yl)-N-[(3S)-1-propanoylpyrrolidin-3-yl]-9H-purin-6-amine], the IC50 in test [1] came to 67 nM. In addition, in test [2], the “Selectivity versus PI3Kalpha” value is given as greater than 10.

Regarding `CCC(=O)N1CC[C@H](N(C)c2ncnc3c2nc(-c2cnc(OC)c(C)c2)n3C)C1` [Compound 2-13, (S)-1-(3-((8-(6-methoxy-5-methylpyridin-3-yl)-9-methyl-9H-purin-6-yl)(methyl)amino)pyrrolidin-1-yl)propan-1-one], the IC50 in test [1] was determined as 17 nM. Moreover, the “Selectivity versus PI3Kalpha” value in test [2] is given as greater than 10.

In the case of `CCn1c(C(F)F)nc2c(N[C@H]3CCN(C(=O)[C@H]4C[C@H](OC)C4)C3)ncnc21` [Compound 7-17, 8-(difluoromethyl)-9-ethyl-N-{(3S)-1-[(trans-3-methoxycyclobutyl)carbonyl]pyrrolidin-3-yl}-9H-purin-6-amine], the IC50 in test [1] was 74 nM. Also, in test [2], the “Selectivity versus PI3Kalpha” value is recorded as greater than 10.

`CCC(=O)N1CC[C@H](Nc2ncnc3c2nc(-c2cnc(C(C)(C)C)s2)n3CC)C1` [Compound 2-10, (S)-1-(3-((8-(2-(tert-butyl)thiazol-5-yl)-9-ethyl-9H-purin-6-yl)amino)pyrrolidin-1-yl)propan-1-one]: the IC50 in test [1] was less than 1 nM. Also, in test [2], the “Selectivity versus PI3Kalpha” value is reported as greater than 10.

Consider `CCn1ncc(-c2nc3c(N[C@H]4CCCN(S(=O)(=O)CC)C4)ncnc3n2C)c1C` [Compound 11-1, 8-(1-ethyl-5-methyl-1H-pyrazol-4-yl)-N-[(3S)-1-(ethylsulfonyl)piperidin-3-yl]-9-methyl-9H-purin-6-amine], for which, in test [1], the IC50 was 7.4 nM. In addition, in test [2], the “Selectivity versus PI3Kalpha” value is greater than 10.

Take `CCn1c(-c2ccc(C(F)(F)F)nc2)nc2c(N[C@H]3CCN(C(=O)C4CC4)C3)ncnc21` [Compound 2-49, N-[(3S)-1-(cyclopropylcarbonyl)pyrrolidin-3-yl]-9-ethyl-8-[6-(trifluoromethyl)pyridin-3-yl]-9H-purin-6-amine]: in test [1], the IC50 turned out to be 1 nM. The “Selectivity versus PI3Kalpha” value in test [2] is greater than 10.

Take `CCn1c(-c2cnc(C)nc2)nc2c(N[C@H]3C[C@H](c4nnc(C)o4)N(C(=O)C4CC4)C3)ncnc21` [Compound 15-14, N-[(3S,5R)-1-(cyclopropylcarbonyl)-5-(5-methyl-1,3,4-oxadiazol-2-yl)pyrrolidin-3-yl]-9-ethyl-8-(2-methylpyrimidin-5-yl)-9H-purin-6-amine]: in test [1], the IC50 came to 39 nM. Also, the “Selectivity versus PI3Kalpha” value in test [2] is given as greater than 10.

On to `CCn1c(-c2cnc(OC)c(F)c2)nc2c(N[C@H]3CCN(C(=O)c4cncn4C)C3)ncnc21` [Compound 3A-2, 9-ethyl-8-(5-fluoro-6-methoxypyridin-3-yl)-N-{(3S)-1-[(1-methyl-1H-imidazol-5-yl)carbonyl]pyrrolidin-3-yl}-9H-purin-6-amine], for which the IC50 in test [1] was less than 1 nM. Further, the “Selectivity versus PI3Kalpha” value in test [2] was greater than 10.

Turning to `CCn1c(-c2cnc(C)nc2)nc2c(N[C@H]3CCN(C(=O)N4CC[C@@H](F)C4)C3)ncnc21` [Compound 12-12, 9-ethyl-N-[(3S)-1-{[(3R)-3-fluoropyrrolidin-1-yl]carbonyl}pyrrolidin-3-yl]-8-(2-methylpyrimidin-5-yl)-9H-purin-6-amine], the IC50 in test [1] was found to be 2.9 nM. For the same compound, in test [2], the “Selectivity versus PI3Kalpha” value is reported as greater than 10.

For the compound `CCC(=O)N1CC[C@H](Nc2ncnc3c2nc(CC(C)C)n3CC)C1` [Compound 7-2, 9-ethyl-8-(2-methylpropyl)-N-[(3S)-1-propanoylpyrrolidin-3-yl]-9H-purin-6-amine], the IC50 in test [1] was 51 nM. In addition, the “Selectivity versus PI3Kalpha” value in test [2] was greater than 10.

On to `CCn1c(-c2cnc(C)nc2)nc2c(N[C@H]3CCN(C(=O)C4CCC4)C3)ncnc21` [Compound 2-22, (S)-cyclobutyl(3-((9-ethyl-8-(2-methylpyrimidin-5-yl)-9H-purin-6-yl)amino)pyrrolidin-1-yl)methanone], for which, in test [1], the IC50 is 1.7 nM. The “Selectivity versus PI3Kalpha” value in test [2] was greater than 10.

Regarding `CCn1c(-c2ccc(C(F)(F)F)cc2)nc2c(N[C@H]3CCN(C(=O)OC(C)(C)C)C3)ncnc21` [Compound 1-24, tert-butyl (3S)-3-({9-ethyl-8-[4-(trifluoromethyl)phenyl]-9H-purin-6-yl}amino)pyrrolidine-1-carboxylate], the IC50 in test [1] worked out at 1.5 nM. The “Selectivity versus PI3Kalpha” value in test [2] is greater than 10.

Take `CCC(=O)N1CC[C@H](Nc2ncnc3c2nc(C2CC2)n3C)C1` [Compound 7-9, 8-cyclopropyl-9-methyl-N-[(3S)-1-propanoylpyrrolidin-3-yl]-9H-purin-6-amine]: the IC50 in test [1] stood at 98 nM. The “Selectivity versus PI3Kalpha” value in test [2] was greater than 10.

On to `CCC(=O)N1CC[C@H](Nc2ncnc3c2nc(-c2cnn(CC)c2C)n3CC)C1` [Compound 2-15, (S)-1-(3-((9-ethyl-8-(1-ethyl-5-methyl-1H-pyrazol-4-yl)-9H-purin-6-yl)amino)pyrrolidin-1-yl)propan-1-one], for which, in test [1], the IC50 is less than 1 nM. The “Selectivity versus PI3Kalpha” value in test [2] is reported as greater than 10.

On to `CCn1c(C(=O)N[C@H](C)C2CC2)nc2c(N[C@H]3CCN(C(=O)C4CC4)C3)ncnc21` [Compound 6-13, 6-{[(3S)-1-(cyclopropylcarbonyl)pyrrolidin-3-yl]amino}-N-[(1R)-1-cyclopropylethyl]-9-ethyl-9H-purine-8-carboxamide], for which the IC50 in test [1] worked out at 12 nM. Besides, the “Selectivity versus PI3Kalpha” value in test [2] is given as greater than 10.

As for `CCn1c(Oc2ccc(OC)c(F)c2)nc2c(N[C@H]3CCN(C(=O)C4CC4)C3)ncnc21` [Compound 8-6, N-[(3S)-1-(cyclopropylcarbonyl)pyrrolidin-3-yl]-9-ethyl-8-(3-fluoro-4-methoxyphenoxy)-9H-purin-6-amine], the IC50 in test [1] is 8.2 nM. Also, the “Selectivity versus PI3Kalpha” value in test [2] was greater than 10.

For `CCn1c(-c2cnc(C)nc2)nc2c(NC3CCC(=O)N(CC4CC4)C3)ncnc21` (single isomer, unassigned) [Compound 14-6, 5(S or R)-1-(cyclopropylmethyl)-5-{[9-ethyl-8-(2-methylpyrimidin-5-yl)-9H-purin-6-yl]amino}piperidin-2-one], the IC50 in test [1] worked out at 4.3 nM. The “Selectivity versus PI3Kalpha” value in test [2] is reported as greater than 10.

Take `CCn1c(-c2cnc(C)nc2)nc2c(NC3CN(C(C)C4CC4)CC34CC4)ncnc21` (stereo not drawn) [Compound 10-2, N(S AND R)-[5-(1-(S AND R)-cyclopropylethyl)-5-azaspiro[2.4]hept-7-yl]-9-ethyl-8-(2-methylpyrimidin-5-yl)-9H-purin-6-amine]: the IC50 in test [1] worked out at 41 nM. In addition, in test [2], the “Selectivity versus PI3Kalpha” value is reported as greater than 10.
